Laboratory results reported in patent US12502428B1, “Immunotherapeutic composition for prevention of obesity, nonalcoholic fatty liver disease and hypertriglyceridemia, and methods of use and preparation thereof” (Utopia Therapeutics Pvt Ltd., priority 2025, dated 2025).
Where no end group is shown, it is not given here.

Key:
high-fat fed mice model = test: Efficacy of the vaccine in high-fat fed mice model (diet induced obesity, DIO); format: in vivo, mice - Balb/c
Text: This model is often referred to as diet induced obesity (DIO) model.
(§1) IAEC approval: IAEC approval obtained for conducting the study; test item name: UT-GT-001; batch number: G2467-145; date of manufacture: 9 Nov.
The dosage for mice extrapolated using standard guidelines.
Formulation was freshly made just before dosing. […] Immunization of peptide is along with Freund's adjuvant by proper mixing. […] Once the drop test passed (the emulsion drop floated on water as intact), the final formulation was administered to mice with the volume of 300 μl.
Immunization and blood collection. After the acclimatization period, body weights of mice were recorded.
At every blood collection, 12 hours fasting was maintained for animals. […] Blood samples were given to the diagnostic center for different blood parameter analysis.

high-fat fed rat model = test: Efficacy of the vaccine in high-fat fed rat model
Text: Species details: species: rats (Wistar); justification: the rats (Wistar) are recognized by the international guidelines as the recommended test system and considerable historical data is available; source: good quality, healthy animals were procured from Hylasco Biotechnology India Pvt Ltd, (Reg. No. 1808/PO/RcBt/S/15/CPCSEA); animal age at the time of randomization: 07-08 weeks; animal weight at the time of randomization: males: 170±20 grams.
Husbandry and diet composition: number of animals: a total number of 6 animals (6M) per group; animal identification: individual cage tags; housing: animals were housed in stainless steel cages, one animal per cage; diet: pelleted rodent feed ad libitum; temperature: 30° C.; humidity: 30 to 70%; light: 12 hours light and 12 hours dark; water: RO purified water, ad libitum; cleaning of cages: twice in a week; acclimatization: the period of acclimatization was a minimum of seven days in the experimental room after the veterinary examination.
Formulation was freshly made just before dosing. For the primer dose of vaccine 3 mg peptide was dissolved in 1 ml of 1×PBS sterile solution to make 3 mg/mL stock solution. 0.4 mL of stock solution was combined with 0.4 mL of complete Freund's adjuvant by vigorous vortexing. For booster doses, the same procedure was followed except that the stock solution was combined with an equal amount of incomplete Freund's adjuvant instead of complete Freund's adjuvant.
Once the drop test was passed (the emulsion drop floated on water intact), the final formulation was administered to rats at 50 μL at each site of injection.
After acclimatization period, body weights of rats were recorded. The rats were randomized based on body weight after quarantine period into two groups n=6 per group as disease control (6M) and treatment group (6M). The disease control and treatment groups were given a high fat diet ad libitum for 8 consecutive weeks while the treatment group received the vaccine doses by intramuscular route as per study design as weekly once dosing for 7 consecutive weeks.
Initial primer dose was given only once during the treatment initiation and the remaining 6 booster doses were administered weekly once to the treatment group animals. Sham group animals received a normal rodent diet fortified with fat. Blood samples were collected on week 0, week 2, week 4, week 6 and week 8 from animals and analyzed for fasting blood glucose, triglycerides, total cholesterol and lipid profile. At every blood collection, 12 hour fasting was maintained for animals. On the final necropsy day, animals were subjected to euthanasia and major organs like liver, heart, lungs, kidneys, testes, spleen, and epididymal fat were collected, weighed and recorded. Half portion of liver was stored immediately in liquid nitrogen and kept at −80° C. for oil red stain and the remaining half was stored in 10% formalin solution, which was taken for histological evaluation by hematoxylin and eosin (H & E) staining.
Blood was centrifuged at 40° C., 4000 RPM for 15 minutes to separate serum and plasma. The serum and plasma samples were analyzed for serum biochemistry and fasting blood glucose respectively. Remaining serum samples were stored at −80° C. until dispatch to the test facility.
General clinical observations were conducted twice daily and detailed clinical observations were conducted once daily.

[1] = Solubility of test item in phosphate buffered saline; format: physicochemical; conditions: in phosphate buffered saline (PBS; 1×)
Text: The dosage for rats extrapolated using standard guidelines.
as §1

[2] = throughout study duration, rats

Substance | abnormalities (clinical observation) (high-fat fed mice model) | adverse clinical signs (high-fat fed mice model) | high fat diet intake (high-fat fed mice model) | water intake (high-fat fed mice model) | critical organ weights (toxicology analysis) (high-fat fed rat model; 8 week study) | hematocrit (toxicology analysis) (high-fat fed rat model; 8 week study) | liver function (AST and ALT) (toxicology analysis) (high-fat fed rat model; 8 week study) | adverse clinical signs (high-fat fed rat model; clinical observations, rats) | hand held observations (high-fat fed rat model; clinical observations, rats) | home cage observations (high-fat fed rat model; clinical observations, rats) | nervous and muscle measurements and other observations (high-fat fed rat model; clinical observations, rats) | open field activity (high-fat fed rat model; [2]) | stimulus response (high-fat fed rat model; [2]) | solubility [1] [%]
MRAPGAGAASVVS [vaccine, MRAPGAGAASVVS] | No abnormalities were observed | No adverse clinical signs were observed | normal | normal | no changes | no changes | improvement | no adverse clinical signs were observed | responded normally | no abnormalities were observed | No abnormalities observed | normal | normal | 
UT-GT-001: test item of the mice study: peptide, anti-hyperlipidemic agent, powder form, Galore Tx Pharmaceuticals; presumably the FATP1 peptide of the vaccine (MRAPGAGAASVVS) |  |  |  |  |  |  |  |  |  |  |  |  |  | 100
GTX-SP-208: test item of the rat study: peptide, anti-hyperlipidemic agent, powder form, Galore Tx Pharmaceuticals; presumably the FATP1 peptide of the vaccine (MRAPGAGAASVVS) |  |  |  |  |  |  |  |  |  |  |  |  |  | 100
